Our source for the IC50 values is patent US20250099448A1, “HETEROCYCLIC COMPOUNDS” (Hoffmann-La Roche Inc., priority 2022, published 2025).

A word on the IC50: it is the midpoint of a concentration-inhibition curve. Low values mean greater potency, high ones weaker potency.

This assay addresses T1, MAGL protein (Homo sapiens, UniProt Q99685).
T1 sequence (Q99685 1-303): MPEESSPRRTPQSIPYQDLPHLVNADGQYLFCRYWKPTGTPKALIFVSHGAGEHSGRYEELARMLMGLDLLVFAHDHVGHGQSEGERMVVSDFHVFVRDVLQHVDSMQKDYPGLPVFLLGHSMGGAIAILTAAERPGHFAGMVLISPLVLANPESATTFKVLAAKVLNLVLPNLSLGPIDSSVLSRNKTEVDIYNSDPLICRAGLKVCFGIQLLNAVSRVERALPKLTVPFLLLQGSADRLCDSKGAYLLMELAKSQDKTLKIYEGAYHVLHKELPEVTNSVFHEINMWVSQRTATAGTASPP
Put plainly: 2-AG assay: MAGL inhibitory activity by hydrolysis of 2-arachidonoylglycerol to arachidonic acid, followed by mass spectrometry. The class given is biochemical. Conditions: 8 μM 2-arachidonoylglycerol, 15 min preincubation, 30 min reaction at RT, RapidFire MS readout. The procedure: Compounds of formula (I) were profiled for MAGL inhibitory activity by determining the enzymatic activity by following the hydrolysis of the natural substrate 2-arachidonoylglycerol (2-AG) resulting in arachidonic acid, which can be followed by mass spectrometry. This assay is hereinafter abbreviated “2-AG assay”. The 2-AG assay was carried out in 384 well polypropylene assay plates. Compound dilutions were made in 100% DMSO in a polypropylene plate in 3-fold dilution steps to give a final concentration range in the assay from 12.5 μM to […]. Compound dilutions were added to MAGL protein in assay buffer (50 mM TRIS, 1 mM EDTA, 0.01% (v/v) Tween-20, 2.5% (v/v) DMSO). After shaking, the plate was incubated for 15 min at RT. To start the reaction, 2-arachidonoylglycerol in assay buffer was added. The final concentrations in the assay was […] for MAGL protein and 8 μM 2-arachidonoylglyerol. After shaking and 30 min incubation at RT, the reaction was quenched by the addition of two assay volumes of acetonitrile containing 4 μM of d8-arachidonic acid. The amount of arachidonic acid formed was traced by an online SPE system (Agilent Rapidfire) coupled to a triple quadrupole mass spectrometer. A C18 SPE cartridge (Agilent G9205A) was used in an acetonitrile/water liquid setup. The mass spectrometer was operated in negative electrospray mode following the mass transitions 303.1→259.1 for arachidonic acid and 311.1→267.0 for d8-arachidonic acid. The activity of the compounds was calculated based on the ratio of intensities [arachidonic acid/d8-arachidonic acid].

Turning to `Cc1nn(CC(F)(F)F)cc1CN1CC2(C1)CN(C(=O)N1CC3(CC(c4nc(C5CC5)n[nH]4)C3)C1)C2` [compound 440], inhibition was half-maximal at 109 nM (IC50).

`O=C(N1CC2(CCC(Cc3ncc(F)cc3F)C2)C1)N1CC2(CC(c3nnc(C4CC4)[nH]3)C2)C1` (stereo not drawn) [compound 147]: half-maximal inhibition (IC50) required 0.29 nM.

In turn, `Cn1nc(C(F)(F)F)cc1CC1CC2(C1)CN(C(=O)N1CC3(CC(c4nc(C5CC5)n[nH]4)C3)C1)C2` [compound 785] had an IC50 of 0.39 nM.

The molecule `NC(=O)c1cc(CC2CC3(C2)CN(C(=O)N2CC4(CC(c5nc(C6CC6)n[nH]5)C4)C2)C3)ccc1OC(F)(F)F` [compound 914] registered an IC50 of 0.27 nM.

In turn, `CS(=O)(=O)c1cc(OC(F)(F)F)ccc1OCC1CCN(C(=O)N2CC3(CC(c4nc(C5(O)CC5)n[nH]4)C3)C2)CC1` [Example 923] displayed an IC50 of 731 nM.

Molecule `CNc1nnc(-c2ccc(C3CN(C(=O)N4CC5(CC(c6nnc(C7CC7)[nH]6)C5)C4)C3)cc2)s1` [Example 600, [6-(5-cyclopropyl-4H-1,2,4-triazol-3-yl)-2-azaspiro[3.3]heptan-2-yl]-[3-[4-[5-(methylamino)-1,3,4-thiadiazol-2-yl]phenyl]azetidin-1-yl]methanone] returned an IC50 of 4.25 nM.

Take `O=C(N1CC2(CCC(Cc3cnc(C(F)(F)F)cn3)C2)C1)N1CC2(CC(c3nnc(C4CC4)[nH]3)C2)C1` (single isomer, unassigned) [compound 151]: it took 0.51 nM to reach half-maximal inhibition (IC50).

On to `O=C(N1CC2(CC(c3nc(C4CC4)n[nH]3)C2)C1)N1CC2(CN(Cc3ccnn3C(F)(F)F)C2)C1` [compound 656], for which the IC50 was found to be 39.7 nM.

Consider `O=C(N1CC2(CC(c3nc(C4CC4)n[nH]3)C2)C1)N1CC2(CC(S(=O)(=O)c3cccc(OC(F)(F)F)c3)C2)C1` [compound 533], for which inhibition was half-maximal at 5.57 nM (IC50).

`O=C(N1CC2(CC(c3nc(C4(O)CC4)n[nH]3)C2)C1)N1CC2(CCN(Cc3cccc(S(=O)(=O)C(F)(F)F)c3)C2)C1` [compound 482] gave a concentration for half-maximal inhibition (IC50) of 3.39 nM.

`Cn1ncc(C(F)(F)F)c1CC1CC2(C1)CN(C(=O)N1CC3(CC(c4nc(C5(O)CC5)n[nH]4)C3)C1)C2` [compound 777] had an IC50 of 1.27 nM.

As for `Cn1cc(OC2CC3(C2)CN(C(=O)N2CC4(CC(c5nc(C6CC6)n[nH]5)C4)C2)C3)c(C(F)(F)F)n1` [compound 425], the IC50 amounted to 2.22 nM.

Turning to `O=C(N1CC2(CC(c3nc(C4CC4)n[nH]3)C2)C1)N1CC2(CN(Cc3cccn(CC(F)(F)F)c3=O)C2)C1` [compound 572], the IC50 came to 184 nM.

`O=C(N1CC2(CC(Oc3cnn(CC(F)(F)F)c3)C2)C1)N1CC2(CC(c3nc(C4CC4)n[nH]3)C2)C1` [compound 631] returned an IC50 of 10.7 nM.

Consider `O=C(N1CC2(CC(Cc3ccc(C(F)(F)F)cn3)C2)C1)N1CC2(CC(c3ncn[nH]3)C2)C1` [compound 987], for which half-maximal inhibition (IC50) was put at 2060 nM.

`CS(=O)(=O)c1ccc(CC2CC3(C2)CN(C(=O)N2CC4(CC(c5nnc(C6CC6)[nH]5)C4)C2)C3)cc1` [compound 12]: the IC50 worked out at 0.81 nM.

On to `O=C(N1CC2(CCC(NS(=O)(=O)c3cccc(OC(F)(F)F)c3)CC2)C1)N1CC2(CC(c3nnc(C4CC4)[nH]3)C2)C1` [compound 348], for which the IC50 came to 0.63 nM.

`CC(C)c1cc(C(C)C)n(-c2ccc(C3CN(C(=O)N4CC5(CC(c6nc(C7(O)CC7)n[nH]6)C5)C4)C3)cc2)n1` [compound 751]: the IC50 worked out at 0.66 nM.

As to `N=S(=O)(c1ccc(CC2CC3(C2)CN(C(=O)N2CC4(CC(c5nc(C6CC(F)(F)C6)n[nH]5)C4)C2)C3)cc1)C(F)(F)F` (stereo not drawn) [compound 603], it took 34.4 nM to reach half-maximal inhibition (IC50).

On to `CC(C)Oc1nc(CC2CC3(C2)CN(C(=O)N2CC4(CC(c5nc(C6CC6)n[nH]5)C4)C2)C3)ccc1C(F)(F)F` [compound 965], for which 0.03 nM corresponded to half-maximal inhibition (IC50).

`N=[S@@](=O)(c1cccc(CC2CC3(C2)CN(C(=O)N2CC4(CC(c5nnc(C6CC6)[nH]5)C4)C2)C3)c1)C(F)(F)F` (single isomer, unassigned) [compound 127] displayed an IC50 of 0.06 nM.

Molecule `O=C(N1CC(n2cc(OCC(F)(F)F)cn2)C1)N1CC2(CC(c3nnc(C4CC4)[nH]3)C2)C1` [compound 207] yielded an IC50 of 60.3 nM.

Take `O=C(N1CC(c2ccc(-n3ccc(C(F)(F)F)cc3=O)cc2)C1)N1CC2(CC(c3nnc(C4CC4)[nH]3)C2)C1` [compound 284]: the IC50 was 1.59 nM.

For `O=C(N1CC2(CC(c3nc(C4CC(F)(F)C4)n[nH]3)C2)C1)N1CC2(CN(Cc3ncc(C(F)(F)F)s3)C2)C1` [compound 596], the IC50 amounted to 357 nM.

Consider `O=C(N1CC(C23CC(c4nnc(C5(C(F)(F)F)CC5)s4)(C2)C3)C1)N1CC2(CC(c3nc(C4CC4)n[nH]3)C2)C1` [compound 557], for which inhibition was half-maximal at 12.4 nM (IC50).

In the case of `COc1cc(C(F)(F)F)ccc1COC1CN(C(=O)N2CC3(CC(c4nnc(C5CC5)[nH]4)C3)C2)C1` [compound 307], the IC50 is 0.44 nM.

In turn, `Cn1nc(CC2CC3(C2)CN(C(=O)N2CC4(CC(c5nc(C6COC6)n[nH]5)C4)C2)C3)cc1C(F)(F)F` [compound 744] returned a half-inhibitory concentration (IC50) of 13.6 nM.

In the case of `Cc1nc(CN2CC3(C2)CN(C(=O)N2CC4(CC(c5nnc(C6CC6)[nH]5)C4)C2)C3)cs1` [compound 896], the half-inhibitory concentration (IC50) worked out at 209 nM.

Consider `O=C(N1CC2(CC(Cc3ccc(C(F)(F)F)cn3)C2)C1)N1CC2(CC(c3nc(C4(F)CC4)n[nH]3)C2)C1` [compound 517], for which the half-inhibitory concentration (IC50) came out at 0.15 nM.

Turning to `O=C(N1CC2(CC(Cc3ccc(OC(F)(F)F)nc3)C2)C1)N1CC2(CC(c3nc(C4CC4)n[nH]3)C2)C1` [compound 501], the 50% inhibitory concentration (IC50) came out at 0.92 nM.

As for `O=C(N1CC2(CCC(Cc3ccc(C(F)(F)F)cn3)C2)C1)N1CC2(CC(c3nc(C4(O)CC4)n[nH]3)C2)C1` (stereo not drawn) [compound 927], the IC50 turned out to be 2.51 nM.

Take `O=C(N1CC(C23CC(c4cc(C5CC5)n[nH]4)(C2)C3)C1)N1CC2(CC(c3nc(C4CC4)n[nH]3)C2)C1` [compound 514]: the half-inhibitory concentration (IC50) is 0.47 nM.

As for `O=C(N1CC2(CC(Oc3ccc(F)cn3)C2)C1)N1CC2(CC(c3nc(C4CC4)n[nH]3)C2)C1` [compound 434], the midpoint of inhibition, the IC50, lay at 5.52 nM.

`CS(=O)(=O)c1cccc(COC2CN(C(=O)N3CC4(CC(c5nnc(C6CC6)[nH]5)C4)C3)C2)c1` [compound 334] had an IC50 of 272 nM.

`O=C(N1CC2(CC(Cc3cnn(C(F)(F)F)c3)C2)C1)N1CC2(CC(c3nc(C4CC4)n[nH]3)C2)C1` [compound 401]: the IC50 was 0.4 nM.

For `Cn1ncc(P(C)(C)=O)c1CN1CC2(C1)CN(C(=O)N1CC3(CC(c4nc(C5CC5)n[nH]4)C3)C1)C2` [compound 838], it took 102 nM to reach half-maximal inhibition (IC50).

For the molecule `O=C(N1CC(c2ccc([C@H]3C[C@H](C(F)(F)F)C3)nc2)C1)N1CC2(CC(c3nnc(C4CC4)[nH]3)C2)C1` [compound 300], the IC50 amounted to 1 nM.

As for `O=C(O)c1ccccc1CN1CC2(C1)CN(C(=O)N1CC3(CC(c4nnc(C5CC5)[nH]4)C3)C1)C2` [Example 172, 2-[[2-[6-(5-cyclopropyl-4H-1,2,4-triazol-3-yl)-2-azaspiro[3.3]heptane-2-carbonyl]-2,6-diazaspiro[3.3]heptan-6-yl]methyl]benzoic Acid], the IC50 stood at 502 nM.

`O=C(N1CC2(CC(Cc3ccc(OC(F)(F)F)cn3)C2)C1)N1CC2(CC(c3nnc(C4(O)CC4)[nH]3)C2)C1` [compound 9] returned an IC50 of 0.57 nM.

For `O=C(N1CC(C23CC(S(=O)(=O)c4ccc(C(F)(F)F)cc4)(C2)C3)C1)N1CC2(CC(c3nc(C4CC4)n[nH]3)C2)C1` [compound 722], it took 57.1 nM to reach half-maximal inhibition (IC50).

For the molecule `O=C(N1CC2(CC(c3ncn[nH]3)C2)C1)N1CC2(CC(c3ccc(C(F)(F)F)cc3F)C2)C1` [compound 982], the IC50 came out at 4970 nM.

For the molecule `O=C(N1CC(c2ccc(CC(F)(F)F)cc2)C1)N1CC2(CC(c3nnc(C4(O)CC4)[nH]3)C2)C1` [compound 244], the IC50 worked out at 7.96 nM.

Take `O=C(N1CC2(CC(Cc3ccc(S(=O)(=O)C(F)(F)F)cn3)C2)C1)N1CC2(CC(c3nc(C4(O)CC4)n[nH]3)C2)C1` [compound 616]: the IC50 came to 1.01 nM.

As to `COc1cc(C(F)(F)F)ccc1CNC1CN(C(=O)N2CC3(CC(c4nnc(C5CC5)[nH]4)C3)C2)C1` [compound 197], the 50% inhibitory concentration (IC50) was 15.6 nM.

`CS(=O)(=O)c1ccc(CC2CC3(C2)CN(C(=O)N2CC4(CC(c5nnc(C6(O)CC6)[nH]5)C4)C2)C3)cc1C(F)(F)F` [compound 47] had an IC50 of 0.27 nM.

In turn, `O=C(N1CC(C23CC(Oc4ccc(C(F)(F)F)cn4)(C2)C3)C1)N1CC2(CC(c3nc(C4CC4)n[nH]3)C2)C1` [compound 736] had an IC50 of 1.65 nM.

For `O=C(N1CC2(CC(c3nc(C4(F)CC4)n[nH]3)C2)C1)N1CC2(CN(Cc3cc(C(F)(F)F)ns3)C2)C1` [compound 531], the midpoint of inhibition, the IC50, lay at 7.53 nM.

For `CC(C)(C)Cc1nnc(C23CC(C4CCN(C(=O)N5CC6(CC(c7nc(C8CC8)n[nH]7)C6)C5)CC4)(C2)C3)o1` [compound 439], half-maximal inhibition (IC50) required 4.22 nM.
